# Non-standard residues stand in square brackets, D forms with d. No end group written: not given here. NMeL = CN[C@@H](CC(C)C)C(=O)O
# B1: recombinant C5a: the complement protein from which the sequence of EP67 is derived (protein, UniProt P01031 678-751, looked up)
# C5a anaphylatoxin: TLQKKIEEIAAKYKHSVVKKCCYDGACVNNDETCEQRAARISLGPRCIKAFTECCVVASQLRANISHKDMQLGR
# modifications: C5a anaphylatoxin
# Tests used:
# human monocytes [1] = experiment: Differentiation of human peripheral blood monocytes (morphology); assay type: cell-based; details: 50 μg/ml, 48 hrs
# From the text: EP67 Differentiates Human Peripheral Blood Monocytes to Cells with Phenotypes Characteristic of Macrophages/DCs.
# [2] = test system: human monocyte-derived macrophages and DCs; experiment: Cytokine release from human macrophages and DCs; assay type: cell-based; details: 50 μg/ml, after 24 hours of incubation
# Description: Human monocyte-derived macrophages and DCs were incubated with EP67 (50 μg/ml) and scrambled EP67 (50 μg/ml) for 6 and 24 hours. Supernatants were collected and analyzed for the presence of the following cytokines: IL-1beta, IL-2, IL-4, IL-6, IL-10, IL-12p70, IL-13, IL-15, TNF-alpha, and IFN-gamma. […] It is worth noting that the prominent cytokines released at 6 and 24 hours in response to EP67 (IL-1beta, IL-2, IL-6, and TNF-alpha) represent a TH1/pro-inflammatory bias relative to the TH2/anti-inflammatory cytokines (IL-4, IL-5, IL-10, and IL-13). This TH1 bias is in keeping with earlier observations with EP67 and is an important immunologic component for an effective immune response to T. gondii.
# DCs = experiment: Surface activation markers of exposed dendritic cells by flow cytometry; assay type: cell-based, mouse; details: 6 hours exposure
# Description: […] vaccines were investigated and found to increase surface activation markers of exposed white blood cells, such as DCs shown in FIG. 10, which were exposed for 6 hours to Vaccines #1 (TgSAG1) and #2 (TgGRA1). Following exposure, cells were fixed and stained with antibodies to measure cell surface markers of intact cells by flow cytometry.
# [3] = test system: bone marrow-derived BALB/c DCs; experiment: Murine dendritic cell activation (cytokine release) by EP67 vaccines; assay type: cell-based, mouse; details: 6 hr exposure
# From the text: A subset of vaccines were developed with murine DC's from BALB/c bone marrow, and examined for cytokine response. […] Bone marrow-derived BALB/c DCs were separately exposed to EP67-containing vaccines #1 (TgSAG1) and #2 (TgGRA1) (Example 3), and compared to sham exposure (media). […] KC/GRO, also known as CXCL1, is a potent neutrophil chemotactic cytokine. Increases in INF-gamma, IL-1b, and TNF-α were also observed, and are in-line with expectations of EP67 engagement of the C5a receptor and subsequent activation of dendritic cells.
# [4] = test system: human monocytes and monocyte-derived dendritic cells; experiment: Multiplex cytokine release from human monocytes and monocyte-derived dendritic cells (EP67 analogues); assay type: cell-based; details: 50 μg/ml, 6 and 24 hours
# From the text: Cytokine Analysis. Considerable time was spent in learning the methods for the rapid, efficient, and high throughput method of cytokine analysis using a multiplex instrument for large panels of cytokines (MesoScale QuickPlex SQ 120). With this instrument, we tested the EP67- and analogue-mediated release of a pro-inflammatory and anti-inflammatory panel of cytokines (IL-1beta, IL-2, IL-4, IL-6, IL-10, IL-12p70, IL-13, IL-15, TNF-α, and IFN-gamma) from human monocytes and monocyte-derived dendritic cells over the course of 6 and 24 hours of exposure 50 μg/ml EP67, scrambled EP67 (scEP67), and EP67 analogues (EP144, EP146, and EP147).
# human monocytes [5] = experiment: Surface marker immunophenotype of human monocytes incubated with EP67; assay type: cell-based; details: 50 μg/ml, over 7 days
# Description: EP67 Differentiates Human Peripheral Blood Monocytes to Cells with Immunophenotypes Characteristic of Macrophages/DCs. Human monocytes were incubated with EP67 (50 μg/ml) and surface markers analyzed over the course of 7 days.
# [6] = test system: bone marrow-derived mouse dendritic cells; experiment: qPCR detection of cytokine expression following exposure to EP67; assay type: cell-based; details: EP67 50 μg/ml, 24 hrs, vs PBS controls, normalized to Actin B
# Description: Free EP67 (unattached to any epitope) was used as a control to stimulate murine bone marrow-derived dendritic cells (See Table 1 below). […] Testing these and additional cytokines (at the gene and protein-expression levels) against all of the synthesized and control vaccines is carried out. Similarly, we will also be analyzing surface marker expression indicative of DC activation.
# EP67 (50 μg/ml) was incubated with bone marrow-derived mouse dendritic cells (24 hrs) following in vitro maturation. Fold changes in expression were compared to PBS controls and normalized to Actin B gene expression. Three replicates were analyzed per gene. […] A positive control, bacterial LPS, was also evaluated and produced upregulation of at least 20-fold above PBS controls for all evaluated cytokines.
# murine splenocytes = experiment: Cytokine release from murine splenocytes; assay type: cell-based, mouse; details: 50 μg/ml
# Description: Splencocytes were obtained from normal Balb/c mice (ca. 2 months) and aged (ca. 17 months) sentinel mice of undetermined background (a gift from the University of Nebraska Medical Center Animal Facility). Spelocytes were cultured in the presence of EP67 and scrambled EP67 (50 μg/ml) for 24 hours, supernatants harvested, and analyzed for the presence of IL-1beta, IL-2, IL-4, IL-5, IL-6, KC/GRO, IL-10, IL-12p70, TNF-alpha, and IFN-gamma. […] Splenocytes were not our original choice of APCs from mice to evaluate the effects of EP67/EP67-based vaccines, but they were chosen for this first assessment as a matter of convenience to help with getting our cell culture protocols and assays established and verified.
# RAW 264.7 cells = experiment: TNF-alpha and IL-6 secretion from RAW 264.7 cells; assay type: cell-based, mouse; details: 6 hr and 24 hr exposures
# Description: Although murine work was achieved using commercially available BALB/c cells, we felt it useful to explore additional cell options for in vitro evaluation of EP67 vaccine candidates. […] FIGS. 13A and 13B show the results of RAW 264.7 cells activated by EP67. In order to evaluate a cell line that is responsive to both EP67 and C5a (the complement protein from which the sequence of EP67 is derived), RAW 264.7 were tested for secretion of TNF-a and IL-6. For both cytokines, supernatants from both 6 hr and 24 hr exposures of recombinant C5a were high.
Molecule,"conversion of monocytes into elongated, adhered macrophage/DC-like cells (human monocytes [1])","release of IL-1beta, IL-2, IL-6, IFN-gamma, and TNF-alpha [2]","CD80, CCR7, and MHC Class II molecules compared to control (media only) (DCs)","INF-gamma, IL-1b, and TNF-α release [3]",cytokine release compared to sham (media) [3],secretion of TNF-a and IL-6 (RAW 264.7 cells),further results
"(MeL)RMYKPaFDS ([NMeL]RMYKP[dA]FDS) [scrmbEP67, reference compound]",not,not,,,,,
EEVIDTMKSMQRDEERRYSFKDMP(MeL)aR (EEVIDTMKSMQRDEERRYSFKDMP[NMeL][dA]R; not fully specified; printed as EEVIDTMKSMQRDEERRYSFKDMP(MeL)aR) [Vaccine 2],,,Elevation occurred,Increases,cytokine release above the controls,,CD80 increase compared to control (media only) (DCs): > 80%
SFKDILPKLSENPWQRRYSFKDMP(MeL)aR (SFKDILPKLSENPWQRRYSFKDMP[NMeL][dA]R; not fully specified; printed as SFKDILPKLSENPWQRRYSFKDMP(MeL)aR) [Vaccine 1],,,Elevation occurred,Increases,cytokine release above the controls,,
YSFKDM(Cha)LaR [EP147],,,,,,,cytokine release (pro- and anti-inflammatory panel) [4]: increase in cytokine release
YSFKDMP(MeL)aR (YSFKDMP[NMeL][dA]R; not fully specified; printed as YSFKDMP(MeL)aR) [EP67],"converts rounded and non-adhered monocytes into elongated, adhered cells",induced the release,,,,statistically significant (p<0.05) increases,"expression of CD14, CD16, CD11b, and CD33 (human monocytes [5]): moderately enhanced; expression of CD80 and CD206 (human monocytes [5]): significantly enhanced; Fold change CXCL1 (a.k.a. KC) expression [6]: 1.61 fold; Fold change IL-6 expression [6]: 3.40 fold; Fold change IL-10 expression [6]: 4.13 fold; Fold change TNF alpha expression [6]: 2.14 fold; cytokine release relative to controls, aged sentinel mice splenocytes (murine splenocytes; aged ca. 17 months): more pronounced effect; cytokine release relative to controls, Balb/c splenocytes (murine splenocytes; normal Balb/c mice ca. 2 months): little effect"
B1,,,,,,high,

# Source: patent publication US11911464B2, “Anti-parasitic immunological compositions” (Prommune, Inc., priority 2018, dated 2024)
